Reference: the NIST ThermoML archive (doi:10.1021/acs.jced.9b00062)
± gives the expanded uncertainty stated by the source.

Columns and labels:
[1] = Molar enthalpy of transition or fusion; details: Crystal; DSC
[2] = for Normal melting temperature: DTA

COc1c(Cl)cc(Cl)cc1Cl [2,4,6-trichloroanisole]
Details	Molar enthalpy of transition or fusion [kcal/mol]
[1]	5.35 ± 0.186

[2]
Details	vapor or sublimation pressure [kPa]
297.11 K, Crystal, Closed cell (Static) method	0.00239 ± 0.00014
300.13 K, Crystal, Closed cell (Static) method	0.00337 ± 0.00017
303.1 K, Crystal, Closed cell (Static) method	0.00462 ± 0.00021
306.06 K, Crystal, Closed cell (Static) method	0.00649 ± 0.00028
309.01 K, Crystal, Closed cell (Static) method	0.00877 ± 0.00036
311.98 K, Crystal, Closed cell (Static) method	0.01199 ± 0.00048
315.2 K, Crystal, Closed cell (Static) method	0.01642 ± 0.00057
317.95 K, Crystal, Closed cell (Static) method	0.02189 ± 0.00065
319.65 K, Metastable liquid, Closed cell (Static) method	0.03551 ± 0.00086
320.87 K, Crystal, Closed cell (Static) method	0.02895 ± 0.00076
322.82 K, Metastable liquid, Closed cell (Static) method	0.04391 ± 0.00099
323.91 K, Crystal, Closed cell (Static) method	0.03921 ± 0.00092
325.77 K, Metastable liquid, Closed cell (Static) method	0.05384 ± 0.0011
326.89 K, Crystal, Closed cell (Static) method	0.05174 ± 0.0011
328.77 K, Metastable liquid, Closed cell (Static) method	0.06611 ± 0.0013
329.85 K, Crystal, Closed cell (Static) method	0.06647 ± 0.0013
331.73 K, Metastable liquid, Closed cell (Static) method	0.0803 ± 0.0015
334.71 K, Closed cell (Static) method, Liquid	0.09766 ± 0.0018
337.68 K, Closed cell (Static) method, Liquid	0.118 ± 0.0021
340.63 K, Closed cell (Static) method, Liquid	0.1424 ± 0.0021
343.63 K, Closed cell (Static) method, Liquid	0.1712 ± 0.0023
346.05 K, Closed cell (Static) method, Liquid	0.1971 ± 0.0025
348.6 K, Closed cell (Static) method, Liquid	0.2292 ± 0.0028
351.58 K, Closed cell (Static) method, Liquid	0.2724 ± 0.0032
354.51 K, Closed cell (Static) method, Liquid	0.3225 ± 0.0036
356.47 K, Closed cell (Static) method, Liquid	0.3593 ± 0.0039
359.37 K, Closed cell (Static) method, Liquid	0.4214 ± 0.0045
362.38 K, Closed cell (Static) method, Liquid	0.4943 ± 0.0051
365.32 K, Closed cell (Static) method, Liquid	0.5801 ± 0.0058
368.31 K, Closed cell (Static) method, Liquid	0.6729 ± 0.0066

Details	Normal melting temperature [°C]
[2], Crystal	59.32 ± 0.39

Oc1c(Br)cc(Br)cc1Br [2,4,6-tribromophenol]
Details	Molar enthalpy of transition or fusion [kcal/mol]
[1]	4.97 ± 0.215

Details	mass density [kg/m3]
[2], 150 K, 101.33 kPa, Crystal, X-ray diffraction	2712 ± 13

[2]
Details	vapor or sublimation pressure [kPa]
307.16 K, Crystal, Calculated from knudsen effusion weight loss	0.000107 ± 6e-06
309.36 K, Crystal, Calculated from knudsen effusion weight loss	0.000141 ± 8e-06
311.2 K, Crystal, Calculated from knudsen effusion weight loss	0.000177 ± 9e-06
313.15 K, Crystal, Calculated from knudsen effusion weight loss	0.000221 ± 1.2e-05
315.37 K, Crystal, Calculated from knudsen effusion weight loss	0.000286 ± 1.5e-05
317.19 K, Crystal, Calculated from knudsen effusion weight loss	0.000358 ± 1.9e-05
319.15 K, Crystal, Calculated from knudsen effusion weight loss	0.00044 ± 2.4e-05
321.33 K, Crystal, Calculated from knudsen effusion weight loss	0.00057 ± 3e-05
323.2 K, Crystal, Calculated from knudsen effusion weight loss	0.0007 ± 3.7e-05
325.15 K, Crystal, Calculated from knudsen effusion weight loss	0.000857 ± 4.6e-05
327.33 K, Crystal, Calculated from knudsen effusion weight loss	0.0011 ± 9.1e-05
329.21 K, Crystal, Calculated from knudsen effusion weight loss	0.00133 ± 0.00011
336.49 K, Crystal, Closed cell (Static) method	0.00284 ± 0.00016
338.49 K, Crystal, Closed cell (Static) method	0.00343 ± 0.00018
340.48 K, Crystal, Closed cell (Static) method	0.00423 ± 0.0002
342.48 K, Crystal, Closed cell (Static) method	0.00513 ± 0.00023
344.42 K, Crystal, Closed cell (Static) method	0.00612 ± 0.00027
344.43 K, Metastable liquid, Closed cell (Static) method	0.01029 ± 0.00042
346.35 K, Crystal, Closed cell (Static) method	0.00743 ± 0.00031
346.53 K, Metastable liquid, Closed cell (Static) method	0.012 ± 0.00048
348.28 K, Metastable liquid, Closed cell (Static) method	0.01367 ± 0.00053
348.35 K, Crystal, Closed cell (Static) method	0.00894 ± 0.00037
350.35 K, Crystal, Closed cell (Static) method	0.01085 ± 0.00044
350.37 K, Metastable liquid, Closed cell (Static) method	0.01582 ± 0.00056
352.36 K, Metastable liquid, Closed cell (Static) method	0.01813 ± 0.0006
352.41 K, Crystal, Closed cell (Static) method	0.01316 ± 0.00052
354.35 K, Metastable liquid, Closed cell (Static) method	0.02079 ± 0.00064
354.4 K, Crystal, Closed cell (Static) method	0.01584 ± 0.00056
356.31 K, Metastable liquid, Closed cell (Static) method	0.02367 ± 0.00068
358.2 K, Metastable liquid, Closed cell (Static) method	0.02689 ± 0.00073
360.17 K, Metastable liquid, Closed cell (Static) method	0.03085 ± 0.00079
362.2 K, Metastable liquid, Closed cell (Static) method	0.03491 ± 0.00085
364.19 K, Metastable liquid, Closed cell (Static) method	0.04045 ± 0.00094
366.13 K, Metastable liquid, Closed cell (Static) method	0.04605 ± 0.001
368.11 K, Closed cell (Static) method, Liquid	0.05207 ± 0.0011
370.06 K, Closed cell (Static) method, Liquid	0.05865 ± 0.0012
372.03 K, Closed cell (Static) method, Liquid	0.06591 ± 0.0013
374.17 K, Closed cell (Static) method, Liquid	0.07545 ± 0.0015
376.12 K, Closed cell (Static) method, Liquid	0.08537 ± 0.0016
378.03 K, Closed cell (Static) method, Liquid	0.09595 ± 0.0018
380 K, Closed cell (Static) method, Liquid	0.1071 ± 0.002
381.93 K, Closed cell (Static) method, Liquid	0.119 ± 0.0022
383.93 K, Closed cell (Static) method, Liquid	0.1348 ± 0.0021
385.88 K, Closed cell (Static) method, Liquid	0.1513 ± 0.0022
387.86 K, Closed cell (Static) method, Liquid	0.1682 ± 0.0023
389.84 K, Closed cell (Static) method, Liquid	0.1876 ± 0.0025
391.79 K, Closed cell (Static) method, Liquid	0.2094 ± 0.0026
393.77 K, Closed cell (Static) method, Liquid	0.2339 ± 0.0028
395.73 K, Closed cell (Static) method, Liquid	0.259 ± 0.0031
397.68 K, Closed cell (Static) method, Liquid	0.284 ± 0.0033
399.69 K, Closed cell (Static) method, Liquid	0.3164 ± 0.0036
401.66 K, Closed cell (Static) method, Liquid	0.3517 ± 0.0039

Details	Normal melting temperature [°C]
[2], Crystal	92.92 ± 0.39

COc1c(Br)cc(Br)cc1Br [2,4,6-tribromoanisole]
Details	Molar enthalpy of transition or fusion [kcal/mol]
[1]	5.71 ± 0.287

[2]
Details	vapor or sublimation pressure [kPa]
330.66 K, Crystal, Closed cell (Static) method	0.00284 ± 0.00016
332.63 K, Crystal, Closed cell (Static) method	0.00349 ± 0.00018
334.5 K, Crystal, Closed cell (Static) method	0.0042 ± 0.0002
336.57 K, Metastable liquid, Closed cell (Static) method	0.00889 ± 0.00037
336.63 K, Crystal, Closed cell (Static) method	0.0051 ± 0.00023
338.58 K, Crystal, Closed cell (Static) method	0.00623 ± 0.00027
338.61 K, Metastable liquid, Closed cell (Static) method	0.01033 ± 0.00042
340.54 K, Crystal, Closed cell (Static) method	0.00747 ± 0.00031
340.57 K, Metastable liquid, Closed cell (Static) method	0.01173 ± 0.00047
342.54 K, Metastable liquid, Closed cell (Static) method	0.01369 ± 0.00053
342.55 K, Crystal, Closed cell (Static) method	0.00915 ± 0.00038
344.5 K, Crystal, Closed cell (Static) method	0.01086 ± 0.00044
344.5 K, Metastable liquid, Closed cell (Static) method	0.01549 ± 0.00055
346.47 K, Crystal, Closed cell (Static) method	0.01317 ± 0.00052
346.48 K, Metastable liquid, Closed cell (Static) method	0.01786 ± 0.00059
348.43 K, Crystal, Closed cell (Static) method	0.01563 ± 0.00056
348.5 K, Metastable liquid, Closed cell (Static) method	0.02061 ± 0.00063
350.42 K, Crystal, Closed cell (Static) method	0.01881 ± 0.00061
350.43 K, Metastable liquid, Closed cell (Static) method	0.02345 ± 0.00068
352.4 K, Crystal, Closed cell (Static) method	0.0224 ± 0.00066
352.41 K, Metastable liquid, Closed cell (Static) method	0.02697 ± 0.00073
354.32 K, Crystal, Closed cell (Static) method	0.0266 ± 0.00073
354.42 K, Metastable liquid, Closed cell (Static) method	0.03065 ± 0.00079
356.36 K, Metastable liquid, Closed cell (Static) method	0.03485 ± 0.00085
356.37 K, Crystal, Closed cell (Static) method	0.03175 ± 0.0008
358.31 K, Metastable liquid, Closed cell (Static) method	0.03946 ± 0.00092
360.25 K, Metastable liquid, Closed cell (Static) method	0.04472 ± 0.001
362.27 K, Closed cell (Static) method, Liquid	0.05049 ± 0.0011
364.24 K, Closed cell (Static) method, Liquid	0.05678 ± 0.0012
366.22 K, Closed cell (Static) method, Liquid	0.06459 ± 0.0013
368.15 K, Closed cell (Static) method, Liquid	0.07257 ± 0.0014
370.19 K, Closed cell (Static) method, Liquid	0.08197 ± 0.0016
372.11 K, Closed cell (Static) method, Liquid	0.09183 ± 0.0017
374.05 K, Closed cell (Static) method, Liquid	0.1023 ± 0.0019
376.07 K, Closed cell (Static) method, Liquid	0.1152 ± 0.0021
377.95 K, Closed cell (Static) method, Liquid	0.1277 ± 0.0023
379.95 K, Closed cell (Static) method, Liquid	0.1426 ± 0.0021
381.85 K, Closed cell (Static) method, Liquid	0.1595 ± 0.0023
383.82 K, Closed cell (Static) method, Liquid	0.177 ± 0.0024
385.79 K, Closed cell (Static) method, Liquid	0.1958 ± 0.0025
387.78 K, Closed cell (Static) method, Liquid	0.2203 ± 0.0027
389.79 K, Closed cell (Static) method, Liquid	0.2436 ± 0.0029
391.72 K, Closed cell (Static) method, Liquid	0.2676 ± 0.0031

Details	Normal melting temperature [°C]
[2], Crystal	86.29 ± 0.4
